Legend:
Assay type in all cases: in vivo, Tomato ecotype corbarino
set of defense genes = assay: qRT-PCR gene expression of the set of tested defence genes in tomato leaves (relative to a-tubulin, compared to water treatment); details: for gene expression of the set of defense genes compared to TSWV treatment: 48 hours from the treatment, tomato leaves
Description: (§1) Tomato ecotype “corbarino” reported to be susceptible to TSWV infection was used in the experiment. Plants were grown in pots in a climatic chamber with a photoperiod of 16/8 hour at 25° C.
(§2) The viral strain (TSWV PV PV-0393) was utilized in the experiment. The virus was mechanically inoculated and propagated on tomato “corbarino”. The inoculum was prepared in an ice-cooled mortar grounding 1 gr of infected tomato tissue in 10 ml of Na-phosphate buffer 0.01M. The fresh prepared inoculum was stored in ice before use. Tomato plants at BBCH16 were dusted with Carborundum 600 mesh and selected leaves were rubbed with some droplets of inoculum. After 5 min. plants were sprayed with sterile water to remove the excess of inoculum and preserve the cell turgor.
(§3) Four treatments were compared: i) Mock inoculated; ii) TSWV; iii) 0.25% Laminarin; iv) 0.25% Laminarin+TSWV. In the last treatment the virus was inoculated 24 hrs after the laminarin application.
Total RNA was extracted from systemic infected tomato leaves by using the Quick-RNA Plant Kit (Zymo Research) following the manufacturer instructions. […] The RNA concentration was quantified by measuring the absorbance at 260 nm using a Nanodrop 2000 (Thermofisher). The purity of all of the RNA samples was assessed at an absorbance ratio of OD260/280 and OD260/230, while its structural integrity was checked by agarose gel electrophoresis. […]
qPCR reactions were performed with BioRad (Applied Biosystems, Foster City, CA, USA) using SYBR R Green. […] Reactions were run using the cycling parameter described previously (Reid et al., 2006) and the qPCR data were analyzed by the Ct method (Pfaffl, 2001). In order to analyze the qPCR data, a-tubulin gene was used as housekeeping to determine the relative expression level of the other genes analyzed in this work. […] The corresponding qPCR efficiencies (E) were calculated for every primer pair with the software 7300 System SDS software (Applied Biosystems, Foster City, CA, USA) according to the equation E=(10−1/slope−1)×100 (Rutledge and Stewart, 2008). […]

[1] = tested on: Hypersensitive response assisting protein (gene 7, Solyc07g006570.2); assay: qRT-PCR expression of gene 7 in tomato leaves; set-up: key to RQ1 / RQ2 / RQ3 / RQ mean: relative expression normalized to a-tubulin housekeeping gene
Description: as §1, §2, §3
(§4) Total RNA was extracted from systemic infected tomato leaves by using the Quick-RNA Plant Kit (Zymo Research) following the manufacturer instructions. The extractions were carried out using three plants after 12 h, 24 h, 48 h, 72 h, 7 days after inoculation. Leaves were instantly frozen in liquid nitrogen after cutting to avoid any deterioration of the sample as well as any defense reaction. The RNA concentration was quantified by measuring the absorbance at 260 nm using a Nanodrop 2000 (Thermofisher). The purity of all of the RNA samples was assessed at an absorbance ratio of OD260/280 and OD260/230, while its structural integrity was checked by agarose gel electrophoresis. Only high-quality RNA with OD 260/280 and OD 260/230>2 was used for subsequent steps. Single-stranded cDNA was synthesized from 1 μg of total RNA using an iScript™ Select cDNA Synthesis Kit and random hexamers as primers (Bio-Rad, Milan, Italy), according to the manufacturer's instructions. Three biological replicates were created from the 3 leaves collected to test 15 genes. Alpha tubulin was used as reference gene.
(§5) qPCR reactions were performed with BioRad (Applied Biosystems, Foster City, CA, USA) using SYBR R Green. Each reaction was performed in 20 μl containing 10 μl of 2× Power SYBR Green PCR Master Mix (Life Technologies), 0.2-0.3 μM primers and cDNA samples diluted 1:20. Each qPCR reaction was performed in triplicate. Reactions were run using the cycling parameter described previously (Reid et al., 2006) and the qPCR data were analyzed by the Ct method (Pfaffl, 2001). In order to analyze the qPCR data, a-tubulin gene was used as housekeeping to determine the relative expression level of the other genes analyzed in this work. For the determination of qPCR efficiency of each primer pairs, a standard curve was performed using the following cDNA dilutions: 1:4, 1:16, 1:64; 1:256 and 1:1024. Every measurement was made in triplicate. The corresponding qPCR efficiencies (E) were calculated for every primer pair with the software 7300 System SDS software (Applied Biosystems, Foster City, CA, USA) according to the equation E=(10−1/slope−1)×100 (Rutledge and Stewart, 2008).
(§6) The significance of the differences between the gene expressions levels were compared by one-way ANOVA (p=0.01) and the means were separated by Tukey post-hoc test using SPSS ver.26 ([…]).

[2] = tested on: AY093595.1 (gene 13, PR protein); assay: qRT-PCR expression of gene 13 in tomato leaves; set-up: key: relative expression normalized to a-tubulin housekeeping gene
Description: as §1, §2, §3, §4, §5, §6

[3] = Gene_13, 12 hr, treatment Laminarin
[4] = Gene_13, 12 hr, treatment Laminarin + virus
[5] = Gene_13, 24 hr, treatment Laminarin
[6] = Gene_13, 24 hr, treatment Laminarin + virus
[7] = Gene_13, 48 hr, treatment Laminarin
[8] = Gene_13, 48 hr, treatment Laminarin + virus
[9] = Gene_13, 72 hr, treatment Laminarin
[10] = Gene_13, 72 hr, treatment Laminarin + virus

laminarin
gene expression of the set of defense genes compared to TSWV treatment (set of defense genes; 0.25% laminarin + TSWV inoculated 24 hrs after laminarin application): activates the set of defense genes at higher level compared to TSWV
gene expression of the set of defense genes compared to TSWV treatment (set of defense genes; 0.25% laminarin alone): activates the set of defense genes at higher level compared to TSWV
gene expression of the tested genes, overall (set of defense genes; 72 hr): clear evidence of the laminarin effects
RQ1 ([1]; 12 hr, Laminarin + virus): 12.106
RQ2 ([1]; 12 hr, Laminarin + virus): 0.8295
RQ3 ([1]; 12 hr, Laminarin + virus): 10.421
RQ mean ([1]; 12 hr, Laminarin + virus): 10.274
RQ1 ([1]; 12 hr, Laminarin alone): 0.9749
RQ2 ([1]; 12 hr, Laminarin alone): 0.8446
RQ3 ([1]; 12 hr, Laminarin alone): 0.8747
RQ mean ([1]; 12 hr, Laminarin alone): 0.8981
RQ1 ([1]; 24 hr, Laminarin + virus): 13.380
RQ2 ([1]; 24 hr, Laminarin + virus): 12.897
RQ3 ([1]; 24 hr, Laminarin + virus): 10.449
RQ mean ([1]; 24 hr, Laminarin + virus): 12.242
RQ1 ([1]; 24 hr, Laminarin alone): 11.623
RQ2 ([1]; 24 hr, Laminarin alone): 12.446
RQ3 ([1]; 24 hr, Laminarin alone): 12.085
RQ mean ([1]; 24 hr, Laminarin alone): 12.051
gene 7 expression compared to TSWV treatment ([1]; 48 hr, 0.25% laminarin + TSWV inoculated 24 hrs later): inverted
gene 7 expression compared to TSWV treatment ([1]; 48 hr, 0.25% laminarin alone): inverted
RQ1 ([1]; 48 hr, Laminarin + virus): 0.7159
RQ2 ([1]; 48 hr, Laminarin + virus): 0.5334
RQ3 ([1]; 48 hr, Laminarin + virus): 0.8167
RQ mean ([1]; 48 hr, Laminarin + virus): 0.6886
RQ1 ([1]; 48 hr, Laminarin alone): 0.7103
RQ2 ([1]; 48 hr, Laminarin alone): 0.7130
RQ3 ([1]; 48 hr, Laminarin alone): 0.6351
RQ mean ([1]; 48 hr, Laminarin alone): 0.6861
RQ1 ([1]; 72 hr, Laminarin + virus): 19.008
RQ2 ([1]; 72 hr, Laminarin + virus): 20.416
RQ3 ([1]; 72 hr, Laminarin + virus): 14.535
RQ mean ([1]; 72 hr, Laminarin + virus): 17.986
RQ1 ([1]; 72 hr, Laminarin alone): 10.549
RQ2 ([1]; 72 hr, Laminarin alone): 0.4677
RQ3 ([1]; 72 hr, Laminarin alone): 11.927
RQ mean ([1]; 72 hr, Laminarin alone): 0.9051
gene 7 overexpression compared to TSWV treatment ([1]; 72 hr, other treatments (laminarin alone, laminarin+TSWV) versus TSWV): overexpression induced by the TSWV is higher compared to the other treatments
RQ1 [2, 3]: 0.9025
RQ2 [2, 3]: 11.021
RQ3 [2, 3]: 12.323
RQ mean [2, 3]: 10.790
RQ1 [2, 4]: 13.339
RQ2 [2, 4]: 10.934
RQ3 [2, 4]: 11.013
RQ mean [2, 4]: 11.762
RQ1 [2, 5]: 13.750
RQ2 [2, 5]: 14.763
RQ3 [2, 5]: 13.300
RQ mean [2, 5]: 13.938
RQ1 [2, 6]: 13.085
RQ2 [2, 6]: 11.438
RQ3 [2, 6]: 12.395
RQ mean [2, 6]: 12.306
RQ1 [2, 7]: 31.999
RQ2 [2, 7]: 13.498
RQ3 [2, 7]: 29.839
RQ mean [2, 7]: 25.112
RQ1 [2, 8]: 25.291
RQ2 [2, 8]: 0.8970
RQ3 [2, 8]: 28.993
RQ mean [2, 8]: 21.085
RQ1 [2, 9]: 45.838
RQ2 [2, 9]: 96.757
RQ3 [2, 9]: 93.370
RQ mean [2, 9]: 78.655
RQ1 [2, 10]: 53.674
RQ2 [2, 10]: 42.556
RQ3 [2, 10]: 49.901
RQ mean [2, 10]: 48.710

Source: patent US20240099214A1, “PLANT DEFENCE GENE EXPRESSION” (UPL Corporation Limited, priority 2021, published 2024)
